Source: ChEMBL document CHEMBL1201862, “PubChem BioAssay data set” (2004)
Calls of active or inactive are those of the source.

Tests used:
[1] = biological target: Vascular endothelial growth factor receptor 3 (Homo sapiens, UniProt P35916); format: functional;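 further: value from a kinome-wide profiling panel, with FLT4 as the panel member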
[2] = biological target: Leucine-rich repeat serine/threonine-protein kinase 2 (Homo sapiens, UniProt Q5S007); format: functional;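 further: value from a broad kinome-wide panel profiling study in which LRRK2 was one of the kinases tested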
Sequence of Leucine-rich repeat serine/threonine-protein kinase 2 (Q5S007 whole entry): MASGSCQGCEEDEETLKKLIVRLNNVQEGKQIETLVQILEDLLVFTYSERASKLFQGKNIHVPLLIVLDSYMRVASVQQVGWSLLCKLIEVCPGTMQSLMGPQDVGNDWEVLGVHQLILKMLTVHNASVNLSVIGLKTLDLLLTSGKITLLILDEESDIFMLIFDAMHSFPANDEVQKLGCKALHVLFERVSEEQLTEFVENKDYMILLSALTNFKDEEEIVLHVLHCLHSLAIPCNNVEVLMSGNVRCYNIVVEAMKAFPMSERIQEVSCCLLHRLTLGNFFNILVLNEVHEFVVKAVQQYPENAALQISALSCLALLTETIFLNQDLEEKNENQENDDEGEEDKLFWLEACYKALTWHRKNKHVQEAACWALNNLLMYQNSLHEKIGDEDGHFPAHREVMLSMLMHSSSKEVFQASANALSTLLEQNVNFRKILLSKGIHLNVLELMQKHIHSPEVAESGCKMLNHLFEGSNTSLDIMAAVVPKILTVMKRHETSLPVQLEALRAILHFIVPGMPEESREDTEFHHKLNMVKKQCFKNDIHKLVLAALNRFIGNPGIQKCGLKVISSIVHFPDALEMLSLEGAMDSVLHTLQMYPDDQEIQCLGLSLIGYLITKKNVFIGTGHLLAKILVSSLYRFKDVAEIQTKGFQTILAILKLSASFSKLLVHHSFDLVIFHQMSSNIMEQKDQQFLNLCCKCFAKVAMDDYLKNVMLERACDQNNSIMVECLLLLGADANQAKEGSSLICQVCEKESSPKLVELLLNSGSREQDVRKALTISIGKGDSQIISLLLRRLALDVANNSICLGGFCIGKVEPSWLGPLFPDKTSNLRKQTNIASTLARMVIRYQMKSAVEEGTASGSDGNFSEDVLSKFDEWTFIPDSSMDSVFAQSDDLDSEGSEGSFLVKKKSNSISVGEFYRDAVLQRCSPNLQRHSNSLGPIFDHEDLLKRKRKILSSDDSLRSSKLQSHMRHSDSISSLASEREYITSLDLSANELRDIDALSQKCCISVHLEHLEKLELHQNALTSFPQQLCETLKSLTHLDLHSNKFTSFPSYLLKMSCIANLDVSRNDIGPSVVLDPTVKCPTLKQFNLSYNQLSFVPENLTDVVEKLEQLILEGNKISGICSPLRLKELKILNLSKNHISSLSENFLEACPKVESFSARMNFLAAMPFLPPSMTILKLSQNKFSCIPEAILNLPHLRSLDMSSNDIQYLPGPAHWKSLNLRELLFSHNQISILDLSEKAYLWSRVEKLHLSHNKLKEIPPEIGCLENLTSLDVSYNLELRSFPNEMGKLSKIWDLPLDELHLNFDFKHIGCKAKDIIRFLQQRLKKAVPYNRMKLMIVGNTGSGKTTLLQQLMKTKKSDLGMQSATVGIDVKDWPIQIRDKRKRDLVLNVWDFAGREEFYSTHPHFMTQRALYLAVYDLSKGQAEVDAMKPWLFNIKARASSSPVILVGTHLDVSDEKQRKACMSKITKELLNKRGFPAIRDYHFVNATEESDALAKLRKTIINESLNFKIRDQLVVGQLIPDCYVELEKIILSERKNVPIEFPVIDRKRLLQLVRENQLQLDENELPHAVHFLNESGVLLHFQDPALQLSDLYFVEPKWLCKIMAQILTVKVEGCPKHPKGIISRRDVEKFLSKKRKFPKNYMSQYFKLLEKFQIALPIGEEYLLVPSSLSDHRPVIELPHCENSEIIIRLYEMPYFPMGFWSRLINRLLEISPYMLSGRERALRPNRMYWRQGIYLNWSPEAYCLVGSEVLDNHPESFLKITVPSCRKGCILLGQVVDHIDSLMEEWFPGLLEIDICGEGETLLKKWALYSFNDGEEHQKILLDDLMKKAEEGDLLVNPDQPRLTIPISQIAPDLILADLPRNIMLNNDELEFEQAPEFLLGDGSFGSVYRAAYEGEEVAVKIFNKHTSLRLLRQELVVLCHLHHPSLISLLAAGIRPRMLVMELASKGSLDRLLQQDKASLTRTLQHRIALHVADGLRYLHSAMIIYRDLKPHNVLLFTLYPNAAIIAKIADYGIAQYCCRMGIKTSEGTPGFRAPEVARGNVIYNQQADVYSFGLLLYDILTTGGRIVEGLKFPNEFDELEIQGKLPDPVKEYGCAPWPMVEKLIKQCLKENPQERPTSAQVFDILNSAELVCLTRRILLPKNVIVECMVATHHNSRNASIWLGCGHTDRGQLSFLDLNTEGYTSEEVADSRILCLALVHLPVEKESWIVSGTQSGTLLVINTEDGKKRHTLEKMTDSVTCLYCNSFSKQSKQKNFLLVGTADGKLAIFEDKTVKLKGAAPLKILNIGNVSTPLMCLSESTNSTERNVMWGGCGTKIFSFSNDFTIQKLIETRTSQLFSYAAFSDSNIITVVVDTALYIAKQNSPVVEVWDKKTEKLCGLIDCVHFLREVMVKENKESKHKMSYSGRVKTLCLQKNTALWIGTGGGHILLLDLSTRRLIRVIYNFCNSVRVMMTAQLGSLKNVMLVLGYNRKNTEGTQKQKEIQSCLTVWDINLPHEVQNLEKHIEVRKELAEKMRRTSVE

[3] = biological target: cGMP-dependent protein kinase 1 (Homo sapiens, UniProt Q13976); format: functional;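 further: value from a kinome panel screen with PRKG1 as the panel member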
Sequence of cGMP-dependent protein kinase 1 (Q13976 whole entry): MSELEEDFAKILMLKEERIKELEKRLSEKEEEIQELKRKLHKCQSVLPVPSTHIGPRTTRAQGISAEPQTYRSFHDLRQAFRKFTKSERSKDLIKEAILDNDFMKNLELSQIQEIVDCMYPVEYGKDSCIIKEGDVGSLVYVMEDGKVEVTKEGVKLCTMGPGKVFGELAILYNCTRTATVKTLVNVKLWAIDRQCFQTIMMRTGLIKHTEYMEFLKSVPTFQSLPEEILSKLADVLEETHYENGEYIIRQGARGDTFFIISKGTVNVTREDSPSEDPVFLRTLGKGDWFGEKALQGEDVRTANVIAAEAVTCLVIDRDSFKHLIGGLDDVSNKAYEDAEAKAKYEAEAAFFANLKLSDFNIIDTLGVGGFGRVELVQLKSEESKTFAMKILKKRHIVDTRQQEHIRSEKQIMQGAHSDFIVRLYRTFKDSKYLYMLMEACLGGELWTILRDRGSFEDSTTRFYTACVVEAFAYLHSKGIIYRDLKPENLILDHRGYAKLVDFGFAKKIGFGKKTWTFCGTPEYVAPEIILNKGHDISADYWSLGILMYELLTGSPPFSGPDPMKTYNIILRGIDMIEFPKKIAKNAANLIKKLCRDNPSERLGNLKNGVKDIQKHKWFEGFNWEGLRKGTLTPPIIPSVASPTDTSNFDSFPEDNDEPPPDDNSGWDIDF

[4] = biological target: Non-receptor tyrosine-protein kinase TYK2 (Homo sapiens, UniProt P29597); format: functional
Caspase-8 = Caspase-8 (Homo sapiens, UniProt Q14790); experiment: inhibitors of purified CASP8 protease – biochemical, Z-IETD-R110 fluorescence, cherry-picked samples, selectivity assay for caspase-6 inhibitor project, dose response (AID 743294)
Sequence of Caspase-8 (Q14790 217-374 limits assumed): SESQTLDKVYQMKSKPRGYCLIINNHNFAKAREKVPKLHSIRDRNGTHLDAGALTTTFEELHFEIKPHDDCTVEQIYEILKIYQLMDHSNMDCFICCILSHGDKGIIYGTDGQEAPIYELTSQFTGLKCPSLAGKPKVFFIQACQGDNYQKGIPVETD
Sequence of Caspase-8 (Q14790 385-479 limits assumed): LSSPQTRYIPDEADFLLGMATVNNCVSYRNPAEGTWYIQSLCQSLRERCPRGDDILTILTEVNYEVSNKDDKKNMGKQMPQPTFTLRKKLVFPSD

[5] = Trypanosoma cruzi growth suppression in host cells – NIH3T3 host cells, beta-gal luminescence, confirmation (AID 2044); format: functional, cell-based;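 further: intracellular parasites grown in NIH/3T3 mouse fibroblasts as host cells; luminescent beta-galactosidase reporter signal from transgenic T. cruzi replicating inside host cells; inhibitors lower the luminescence signal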
[6] = biological target: T1, Sentrin-specific protease 6 (Homo sapiens, UniProt Q9GZR1); format: functional;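 further: Luminescence-based dose-response confirmatory assay of SENP6 inhibition, following up an ultra-high-throughput screen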
T1 sequence (Q9GZR1 whole entry): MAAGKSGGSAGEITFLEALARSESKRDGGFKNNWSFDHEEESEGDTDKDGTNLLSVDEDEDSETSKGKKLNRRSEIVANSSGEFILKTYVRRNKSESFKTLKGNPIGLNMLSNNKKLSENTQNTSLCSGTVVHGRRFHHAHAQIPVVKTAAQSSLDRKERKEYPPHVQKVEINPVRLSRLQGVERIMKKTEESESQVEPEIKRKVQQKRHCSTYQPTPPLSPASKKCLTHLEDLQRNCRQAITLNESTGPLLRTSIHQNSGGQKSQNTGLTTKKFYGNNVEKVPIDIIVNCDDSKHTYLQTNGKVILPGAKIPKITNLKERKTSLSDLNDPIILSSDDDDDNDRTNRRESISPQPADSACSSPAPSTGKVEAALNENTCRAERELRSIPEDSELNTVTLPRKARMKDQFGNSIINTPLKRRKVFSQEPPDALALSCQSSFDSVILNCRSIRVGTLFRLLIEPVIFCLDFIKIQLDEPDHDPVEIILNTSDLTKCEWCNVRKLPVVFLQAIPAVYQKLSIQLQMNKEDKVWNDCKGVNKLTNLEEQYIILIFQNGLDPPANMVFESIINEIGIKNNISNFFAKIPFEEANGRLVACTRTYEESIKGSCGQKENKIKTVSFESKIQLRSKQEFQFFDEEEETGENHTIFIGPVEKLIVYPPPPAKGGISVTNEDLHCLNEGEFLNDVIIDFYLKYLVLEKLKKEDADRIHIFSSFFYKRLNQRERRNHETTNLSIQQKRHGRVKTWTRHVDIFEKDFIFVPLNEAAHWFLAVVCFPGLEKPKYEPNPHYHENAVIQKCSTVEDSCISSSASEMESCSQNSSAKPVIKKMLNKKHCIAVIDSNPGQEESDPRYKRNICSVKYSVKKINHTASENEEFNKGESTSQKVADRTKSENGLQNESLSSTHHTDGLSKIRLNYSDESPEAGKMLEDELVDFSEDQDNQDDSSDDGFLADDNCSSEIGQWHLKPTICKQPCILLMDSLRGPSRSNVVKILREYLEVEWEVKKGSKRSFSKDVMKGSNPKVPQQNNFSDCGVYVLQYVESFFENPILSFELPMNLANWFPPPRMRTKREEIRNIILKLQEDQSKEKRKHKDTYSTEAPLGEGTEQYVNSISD

Sequence of Vascular endothelial growth factor receptor 3 (P35916 whole entry): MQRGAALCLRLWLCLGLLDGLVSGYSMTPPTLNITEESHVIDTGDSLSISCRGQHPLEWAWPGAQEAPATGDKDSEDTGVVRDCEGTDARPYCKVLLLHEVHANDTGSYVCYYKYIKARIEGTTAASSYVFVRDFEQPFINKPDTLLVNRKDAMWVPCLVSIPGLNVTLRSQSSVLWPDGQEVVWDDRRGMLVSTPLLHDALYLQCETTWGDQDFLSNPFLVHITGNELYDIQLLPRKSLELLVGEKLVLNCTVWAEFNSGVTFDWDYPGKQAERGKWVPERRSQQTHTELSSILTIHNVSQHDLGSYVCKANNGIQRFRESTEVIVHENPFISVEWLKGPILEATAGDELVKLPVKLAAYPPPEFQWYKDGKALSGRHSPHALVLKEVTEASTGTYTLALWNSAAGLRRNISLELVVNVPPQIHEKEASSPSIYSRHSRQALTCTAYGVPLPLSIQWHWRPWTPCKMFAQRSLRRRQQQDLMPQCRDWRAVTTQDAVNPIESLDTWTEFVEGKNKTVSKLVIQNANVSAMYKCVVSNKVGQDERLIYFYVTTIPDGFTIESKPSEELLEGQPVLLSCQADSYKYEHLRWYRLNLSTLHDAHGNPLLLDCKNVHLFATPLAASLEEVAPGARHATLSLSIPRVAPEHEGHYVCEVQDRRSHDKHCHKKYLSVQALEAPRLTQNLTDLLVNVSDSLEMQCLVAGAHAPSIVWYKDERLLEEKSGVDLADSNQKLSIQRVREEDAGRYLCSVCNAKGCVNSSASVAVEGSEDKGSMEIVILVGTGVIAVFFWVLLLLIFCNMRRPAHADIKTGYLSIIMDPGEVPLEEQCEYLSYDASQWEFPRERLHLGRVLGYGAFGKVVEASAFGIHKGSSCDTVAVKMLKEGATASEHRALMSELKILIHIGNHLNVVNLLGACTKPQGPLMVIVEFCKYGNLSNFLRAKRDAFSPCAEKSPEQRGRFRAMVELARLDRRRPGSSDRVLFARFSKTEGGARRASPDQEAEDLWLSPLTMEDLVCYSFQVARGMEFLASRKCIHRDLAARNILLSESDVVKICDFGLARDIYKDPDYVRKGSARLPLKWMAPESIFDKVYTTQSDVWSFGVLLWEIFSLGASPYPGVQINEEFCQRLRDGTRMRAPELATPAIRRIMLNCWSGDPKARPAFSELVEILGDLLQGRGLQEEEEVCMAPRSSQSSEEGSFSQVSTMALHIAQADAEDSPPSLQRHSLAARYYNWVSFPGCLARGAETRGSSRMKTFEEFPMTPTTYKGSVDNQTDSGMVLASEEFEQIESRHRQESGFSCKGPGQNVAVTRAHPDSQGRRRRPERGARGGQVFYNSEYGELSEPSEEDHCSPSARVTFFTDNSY

Ki [1]	Ki [2]	Ki [3]	Ki [4]	SMILES	AC50 (Caspase-8)	EC50 [5]	IC50 [6]
> 6310 nM (inactive)	20 nM (active)	631 nM (active)	> 2000 nM (inactive)	CC(N)C1CCC(C(=O)Nc2ccnc3[nH]ccc23)CC1 (configuration not stated)	–	–	–
–	–	–	–	Cc1c(NC(=O)C(C)OC(=O)c2ccc([N+](=O)[O-])s2)c(=O)n(-c2ccccc2)n1C (configuration not stated)	22800 nM (active)	1590 nM (active)	7320 nM (active)
